This experiment deals with cholesterol biosynthesis. Put plainly: inhibition of cholesterol biosynthesis (method of J. Biol. Chem. 234, 2835 (1959)). In kind it is biochemical. The settings on record: method of Journal of Biological Chemistry, 234, 2835 (1959). From the text: The compounds of the invention in which R^1 and R^2 both represent oxygen atoms are, as already described, valuable intermediates for the synthesis of the active compounds. The inhibitory activities of certain of the compounds of the invention, in terms of the concentration in ng/ml required to inhibit colesterol biosynthesis by 50% [measured by the method described in the Journal of Biological Chemistry, 234, 2835 (1959)], are as follows (for comparison, the value for ML-236B lactone is also given): […]

Here are results for 8 compounds from patent publication US4733003A, “Octahydronaphthalene derivatives and their preparation” (Sankyo Company Limited, priority 1981, dated 1988).

As to `CCC(C)C(=O)OC1CCC(=NO)C2=CC(=NO)C(C)C(CCC3CC(O)CC(=O)O3)C21` (single isomer, unassigned) [isomer a (Example 3), 3,4-Dihydro-4,6-bis(hydroxyimino)IsoML-236B lactone], the “concentration required to inhibit colesterol biosynthesis by 50%” value came to 4.5 ng/mL.
Take `CCC(C)C(=O)OC1CCC(=NO)C2=CC(=NO)C(C)C(CCC3CC(O)CC(=O)O3)C21` (single isomer, unassigned) [isomer b (Example 3), 3,4-Dihydro-4,6-bis(hydroxyimino)IsoML-236B lactone]: the “concentration required to inhibit colesterol biosynthesis by 50%” value stood at 4.3 ng/mL.
`CC1C(=O)C=C2C(=NO)CCC(O)C2C1CCC1CC(O)CC(=O)O1` (centres unmarked) [3,4-Dihydro-6-oxo-4-hydroxyiminoIsoML-236A lactone]: the “concentration required to inhibit colesterol biosynthesis by 50%” value turned out to be 0.9 ng/mL.
The figure for `CCC(C)C(=O)OC1CCC(=NO)C2=CC(=O)C(C)C(CCC3CC(O)CC(=O)O3)C21` (centres unmarked) [3,4-Dihydro-6-oxo-4-hydroxyiminoIsoML-236B lactone] is 0.3 ng/mL; for `CCC(C)C(=O)OC1CCC(=NOC)C2=CC(=O)C(C)C(CCC3CC(O)CC(=O)O3)C21` (centres unmarked) [3,4-Dihydro-6-oxo-4-methoxyiminoIsoML-236B lactone] it is 0.6 ng/mL; for `CCC(C)C(=O)OC1CCC=C2C=CC(C)C(CCC3CC(O)CC(=O)O3)C21` (centres unmarked) [ML-236B lactone, reference compound] it is 10 ng/mL.
In the case of `CCC(C)C(=O)OC1CCC(=NO)C2=CC(=O)C(C)C(CCC(O)CC(O)CC(=O)O)C21` (centres unmarked) [disodium 3,4-dihydro-6-oxo-4-oxidoiminoIsoML-236B carboxylat] [Disodium 3,4-dihydro-6-oxo-4-oxidoiminoIsoML-236B carboxylate], the “concentration required to inhibit colesterol biosynthesis by 50%” value stood at 0.4 ng/mL.
The figure for `CCC(C)C(=O)OC1CCC(=NO)C2=CC(=O)C(C)C(CCC(O)CC(O)CC(=O)O)C21` (centres unmarked) [sodium 3,4-dihydro-6-oxo-4-hydroxyiminoIsoML-236B carboxylat] [Sodium 3,4-dihydro-6-oxo-4-hydroxyiminoIsoML-236B carboxylate] is 0.3 ng/mL.
